{
  "source": "ChEMBL document CHEMBL1255351",
  "about": "“Biochemical characterization of metallo-beta-lactamase VIM-11 from a Pseudomonas aeruginosa clinical strain” (2008)",
  "key": {"[1]": {"tested_on": "Escherichia coli", "assay": "Antimicrobial activity Escherichia coli DH5alpha expressing metallo-beta-lactamase VIM-11 by agar macrodilution method", "assay_type": "functional"}, "[2]": {"tested_on": "Escherichia coli", "assay": "Antimicrobial activity Escherichia coli DH5alpha expressing beta lactamase VIM-2 by agar macrodilution method", "assay_type": "functional"}, "[3]": {"tested_on": "Pseudomonas aeruginosa", "assay": "Ratio of Kcat to Km for Pseudomonas aeruginosa COL-1 metallo-beta lactamase VIM-2 over Kcat to Km for Pseudomonas aeruginosa M5109 metallo-beta-lactamase VIM-11"}, "[4]": {"tested_on": "Escherichia coli", "assay": "Antimicrobial activity Escherichia coli DH5alpha harboring bacteriophage T4 plasmid alpha omega by agar macrodilution method", "assay_type": "functional"}, "[5]": {"molecular_target": "Metallo-beta-lactamase (Escherichia coli) (UniProt Q5U7L7)", "assay": "Activity at Escherichia coli DH5alpha metallo-beta-lactamase VIM-2 assessed as compound hydrolysis per mg of total periplasmic protein by spectrometry"}, "[6]": {"tested_on": "Escherichia coli", "assay": "Activity at Escherichia coli DH5alpha metallo-beta-lactamase VIM-11 assessed as compound hydrolysis per mg of total periplasmic protein by spectrometry"}, "[7]": {"tested_on": "CC(C)(O/N=C(\\C(=O)N[C@@H]1C(=O)N2C(C(=O)[O-])=C(C[n+]3ccccc3)CS[C@H]12)c1csc(N)n1)C(=O)O", "assay": "(§1) Ratio of Kcat to Km for Pseudomonas aeruginosa COL-1 metallo-beta lactamase VIM-2"}, "[8]": {"tested_on": "CC(=O)OCC1=C(C(=O)O)N2C(=O)[C@@H](NC(=O)Cc3cccs3)[C@H]2SC1", "assay": "as §1"}, "[9]": {"tested_on": "CC1(C)S[C@@H]2[C@H](NC(=O)[C@H](N)c3ccccc3)C(=O)N2[C@H]1C(=O)O", "assay": "as §1"}, "[10]": {"tested_on": "CO[C@@]1(NC(=O)Cc2cccs2)C(=O)N2C(C(=O)O)=C(COC(N)=O)CS[C@@H]21", "assay": "as §1"}, "[11]": {"tested_on": "O=C(Cc1cccs1)N[C@@H]1C(=O)N2C(C(=O)O)=C(/C=C/c3ccc([N+](=O)[O-])cc3[N+](=O)[O-])CS[C@H]12", "assay": "as §1"}, "[12]": {"tested_on": "CO/N=C(\\C(=O)N[C@@H]1C(=O)N2C(C(=O)O)=C(COC(N)=O)CS[C@H]12)c1ccco1", "assay": "as §1"}, "[13]": {"tested_on": "C[C@@H](O)[C@H]1C(=O)N2C(C(=O)O)=C(S[C@@H]3CN[C@H](C(=O)N(C)C)C3)[C@H](C)[C@H]12", "assay": "as §1"}, "[14]": {"tested_on": "CO/N=C(\\C(=O)N[C@@H]1C(=O)N2C(C(=O)O)=C(COC(C)=O)CS[C@H]12)c1csc(N)n1", "assay": "as §1"}, "[15]": {"tested_on": "CC(C)(O/N=C(\\C(=O)N[C@@H]1C(=O)N2C(C(=O)[O-])=C(C[n+]3ccccc3)CS[C@H]12)c1csc(N)n1)C(=O)O", "assay": "(§2) Activity at Pseudomonas aeruginosa COL-1 metallo-beta lactamase VIM-2 by spectrometry"}, "[16]": {"tested_on": "CC(=O)OCC1=C(C(=O)O)N2C(=O)[C@@H](NC(=O)Cc3cccs3)[C@H]2SC1", "assay": "as §2"}, "[17]": {"tested_on": "CC1(C)S[C@@H]2[C@H](NC(=O)[C@H](N)c3ccccc3)C(=O)N2[C@H]1C(=O)O", "assay": "as §2"}, "[18]": {"tested_on": "CO[C@@]1(NC(=O)Cc2cccs2)C(=O)N2C(C(=O)O)=C(COC(N)=O)CS[C@@H]21", "assay": "as §2"}, "[19]": {"tested_on": "O=C(Cc1cccs1)N[C@@H]1C(=O)N2C(C(=O)O)=C(/C=C/c3ccc([N+](=O)[O-])cc3[N+](=O)[O-])CS[C@H]12", "assay": "as §2"}, "[20]": {"tested_on": "CO/N=C(\\C(=O)N[C@@H]1C(=O)N2C(C(=O)O)=C(COC(N)=O)CS[C@H]12)c1ccco1", "assay": "as §2"}, "[21]": {"tested_on": "C[C@@H](O)[C@H]1C(=O)N2C(C(=O)O)=C(S[C@@H]3CN[C@H](C(=O)N(C)C)C3)[C@H](C)[C@H]12", "assay": "as §2"}, "[22]": {"tested_on": "CO/N=C(\\C(=O)N[C@@H]1C(=O)N2C(C(=O)O)=C(COC(C)=O)CS[C@H]12)c1csc(N)n1", "assay": "as §2"}, "[23]": {"tested_on": "CO/N=C(\\C(=O)N[C@@H]1C(=O)N2C(C(=O)[O-])=C(C[n+]3cccc4c3CCC4)CS[C@H]12)c1csc(N)n1", "assay": "as §2"}},
  "data": [
    {"compound": "CC1(C)S[C@@H]2[C@H](NC(=O)Cc3ccccc3)C(=O)N2[C@H]1C(=O)O", "note": "[PENICILLIN G]", "values": [
      {"measurement": "MIC", "setting": "[1]", "result": 128, "unit": "µg/mL"},
      {"measurement": "MIC", "setting": "[2]", "result": 128, "unit": "µg/mL"}
    ]},
    {"compound": "CC(C)(O/N=C(\\C(=O)N[C@@H]1C(=O)N2C(C(=O)[O-])=C(C[n+]3ccccc3)CS[C@H]12)c1csc(N)n1)C(=O)O", "note": "[CEFTAZIDIME]", "values": [
      {"measurement": "kcat/Km ratio", "setting": "[3]", "result": 4.06},
      {"measurement": "MIC", "setting": "[1]", "result": 8, "unit": "µg/mL"},
      {"measurement": "MIC", "setting": "[2]", "result": 8, "unit": "µg/mL"},
      {"measurement": "MIC", "setting": "[4]", "result": 0.125, "unit": "µg/mL"},
      {"measurement": "Activity", "setting": "[5]", "result": 5.5, "unit": "µmol"},
      {"measurement": "Activity", "setting": "[6]", "result": 0.9, "unit": "µmol"}
    ]},
    {"compound": "CO/N=C(\\C(=O)N[C@@H]1C(=O)N2C(C(=O)O)=C(COC(N)=O)CS[C@H]12)c1ccco1", "note": "[CEFUROXIME]", "values": [
      {"measurement": "kcat/Km ratio", "setting": "[3]", "result": 0.89},
      {"measurement": "MIC", "setting": "[1]", "result": 64, "unit": "µg/mL"},
      {"measurement": "MIC", "setting": "[2]", "result": 128, "unit": "µg/mL"},
      {"measurement": "MIC", "setting": "[4]", "result": 4, "unit": "µg/mL"}
    ]},
    {"compound": "C[C@@H](O)[C@H]1C(=O)N2C(C(=O)O)=C(S[C@@H]3CN[C@H](C(=O)N(C)C)C3)[C@H](C)[C@H]12", "note": "[MEROPENEM]", "values": [
      {"measurement": "kcat/Km ratio", "setting": "[3]", "result": 1},
      {"measurement": "MIC", "setting": "[1]", "result": 0.06, "unit": "µg/mL"},
      {"measurement": "MIC", "setting": "[2]", "result": 0.125, "unit": "µg/mL"},
      {"measurement": "MIC", "setting": "[4]", "result": 0.03, "unit": "µg/mL"}
    ]},
    {"compound": "CC(=O)OCC1=C(C(=O)O)N2C(=O)[C@@H](NC(=O)Cc3cccs3)[C@H]2SC1", "note": "[CEPHALOTHIN]", "values": [
      {"measurement": "kcat/Km ratio", "setting": "[3]", "result": 1.12},
      {"measurement": "MIC", "setting": "[1]", "result": 64, "unit": "µg/mL"},
      {"measurement": "MIC", "setting": "[2]", "result": 64, "unit": "µg/mL"},
      {"measurement": "MIC", "setting": "[4]", "result": 4, "unit": "µg/mL"},
      {"measurement": "Activity", "setting": "[5]", "result": 141, "unit": "µmol"},
      {"measurement": "Activity", "setting": "[6]", "result": 5.4, "unit": "µmol"}
    ]},
    {"compound": "Metallo-beta-lactamase VIM-2 (Pseudomonas aeruginosa) (from UniProt D1MEN9)", "values": [
      {"measurement": "kcat/Km", "setting": "[7]", "result": 3.2, "unit": "×10⁶ /M/s"},
      {"measurement": "kcat/Km", "setting": "[8]", "result": 1.6, "unit": "×10⁶ /M/s"},
      {"measurement": "kcat/Km", "setting": "[9]", "result": 2.2, "unit": "×10⁶ /M/s"},
      {"measurement": "kcat/Km", "setting": "[10]", "result": 1, "unit": "×10⁶ /M/s"},
      {"measurement": "kcat/Km", "setting": "[11]", "result": 1.5, "unit": "×10⁶ /M/s"},
      {"measurement": "kcat/Km", "setting": "[12]", "result": 5.5, "unit": "×10⁶ /M/s"},
      {"measurement": "kcat/Km", "setting": "[13]", "result": 1.4, "unit": "×10⁶ /M/s"},
      {"measurement": "kcat/Km", "setting": "[14]", "result": 4.6, "unit": "×10⁶ /M/s"},
      {"measurement": "Km", "setting": "[15]", "result": 88.2, "unit": "µM"},
      {"measurement": "Km", "setting": "[16]", "result": 6.2, "unit": "µM"},
      {"measurement": "kcat", "setting": "[16]", "result": 96.4, "unit": "s⁻¹"},
      {"measurement": "Km", "setting": "[17]", "result": 136, "unit": "µM"},
      {"measurement": "kcat", "setting": "[18]", "result": 10, "unit": "s⁻¹"},
      {"measurement": "Km", "setting": "[19]", "result": 13.8, "unit": "µM"},
      {"measurement": "kcat", "setting": "[19]", "result": 206, "unit": "s⁻¹"},
      {"measurement": "Km", "setting": "[20]", "result": 5.5, "unit": "µM"},
      {"measurement": "kcat", "setting": "[20]", "result": 30.5, "unit": "s⁻¹"},
      {"measurement": "Km", "setting": "[21]", "result": 24.5, "unit": "µM"},
      {"measurement": "kcat", "setting": "[21]", "result": 3.5, "unit": "s⁻¹"},
      {"measurement": "Km", "setting": "[22]", "result": 13.4, "unit": "µM"},
      {"measurement": "kcat", "setting": "[22]", "result": 61, "unit": "s⁻¹"},
      {"measurement": "Km", "setting": "[23]", "result": 171, "unit": "µM"},
      {"measurement": "kcat", "setting": "[23]", "result": 48.1, "unit": "s⁻¹"}
    ]},
    {"compound": "CO/N=C(\\C(=O)N[C@@H]1C(=O)N2C(C(=O)[O-])=C(C[N+]3(C)CCCC3)CS[C@H]12)c1csc(N)n1", "values": [
      {"measurement": "kcat/Km ratio", "setting": "[3]", "result": 2.9},
      {"measurement": "MIC", "setting": "[1]", "result": 0.5, "unit": "µg/mL"},
      {"measurement": "MIC", "setting": "[2]", "result": 0.5, "unit": "µg/mL"}
    ]},
    {"compound": "C[C@@H](O)[C@H]1C(=O)N2C(C(=O)O)=C(SCCNC=N)C[C@H]12", "note": "[IMIPENEM ANHYDROUS]", "values": [
      {"measurement": "kcat/Km ratio", "setting": "[3]", "result": 0.67},
      {"measurement": "MIC", "setting": "[1]", "result": 0.5, "unit": "µg/mL"},
      {"measurement": "MIC", "setting": "[2]", "result": 1, "unit": "µg/mL"},
      {"measurement": "Activity", "setting": "[5]", "result": 27, "unit": "µmol"},
      {"measurement": "Activity", "setting": "[6]", "result": 1.3, "unit": "µmol"}
    ]}
  ]
}
